Source: patent US5416222A, “3-pyrrolidine methanamines wherein the alpha-carbon is substituted by 1 or 2 lower alkyl groups which are intermediates for pyridone-carboxylic acid derivatives” (Daiichi Seiyaku Co., Ltd., priority 1985, dated 1995)
≈ marks a conversion by molar mass, not a printed value.

Key:
E. coli, NIHJ = experiment: antimicrobial activity, MIC, standard process of Japan Society of Chemotherapy; assay type: cell-based
Summary of the method: (§1)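 Each compound was tested following the Japan Society of Chemotherapy protocol, and the minimum concentration that inhibited growth was recorded in μg/ml.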

S. epidermidis, 56500 = experiment: as above; assay type: cell-based; settings: for minimum growth inhibitory concentration (MIC): S. epidermidis
Summary of the method: as §1

Pr. vulgaris, 3167 = experiment: as above; assay type: cell-based; settings: for minimum growth inhibitory concentration (MIC): Pr. vulgaris
Summary of the method: as §1

Ser. marcescens, 13001 = experiment: as above; assay type: cell-based; settings: for minimum growth inhibitory concentration (MIC): Ser. marcescens
Summary of the method: as §1

S. aureus, 209P = experiment: as above; assay type: cell-based
Summary of the method: as §1

Ps. aeruginosa, 2063 = experiment: as above; assay type: cell-based; settings: for minimum growth inhibitory concentration (MIC): Ps. aeruginosa
Summary of the method: as §1

[1] = system: Str. faecalis, ATCC 19433; experiment: as above; assay type: cell-based; settings: for minimum growth inhibitory concentration (MIC): Str. faecalis
Summary of the method: as §1

Ps. maltophilia, IID1275 = experiment: as above; assay type: cell-based; settings: for minimum growth inhibitory concentration (MIC): Ps. maltophilia
Summary of the method: as §1

Ps. aeruginosa, 2128 = experiment: as above; assay type: cell-based; settings: for minimum growth inhibitory concentration (MIC): Ps. aeruginosa
Summary of the method: as §1

Pr. mirabilis, IF03849 = experiment: as above; assay type: cell-based; settings: for minimum growth inhibitory concentration (MIC): Pr. mirabilis
Summary of the method: as §1

Ps. cepacia, IID1340 = experiment: as above; assay type: cell-based; settings: for minimum growth inhibitory concentration (MIC): Ps. cepacia
Summary of the method: as §1

Sh. flexneri, 2a5503 = experiment: as above; assay type: cell-based
Summary of the method: as §1

Str. pyogenes, G-36 = experiment: as above; assay type: cell-based; settings: for minimum growth inhibitory concentration (MIC): Str. pyogenes
Summary of the method: as §1

[2] = system: Gram-negative microorganisms; experiment: antimicrobial activity against Gram-negative microorganisms (in words); assay type: cell-based
Description: (§2) The antimicrobial activities of the compounds of the present invention were determined according to a standard process designated by the Japan Society of Chemotherapy and the minimum growth inhibitory concentrations (MIC) (μg/ml) the compounds were determined.

[3] = system: Gram-positive microorganisms; experiment: antimicrobial activity against Gram-positive microorganisms (in words); assay type: cell-based
Description: as §2

[4] = system: Gram-positive microorganisms; settings: in words, prior art discussion; cited from earlier work
acute toxicity to mouse = assay type: in vivo; settings: mouse, in vivo, iv; 200 mg/kg
Description: (§3) The water-solubility and acute toxicity of the compounds of the present invention and the comparative compounds, were measured. The results obtained are shown hereunder. The water-solubility was measured by the following method.
*200 mg/kg; i.v, (deaths/total number) As is obvious from the above

[5] = in words, prior art discussion; cited from earlier work
physchem = assay type: physicochemical; settings: distilled water, room temperature (23° to 26° C.), 30 minutes agitation; read-out: Water solubility
Description: as §3
(i) Preparation of standard solution
About 400 μg of the sample to be measured was accurately weighed (the weight was defined as W μg), and 0.1N NaOH solution was added thereto to bring the whole volume to 50 ml. The UV absorbance of a given amount of the solution was measured and the measured absorbance was defined as A1.
(ii) Preparation of sample to be measured
Distilled water was added to the sample to be measured (fine powder) in such amount that the sample was not completely dissolved but suspended, and then the suspension was vigorously agitated at room temperature (between 23° and 26° C.) for 30 minutes. Insoluble matter of the sample was removed therefrom by filtration, after which 3 ml sample of the filtrate (satulated aqueous solution of the sample) was taken. 3 ml of 0.2N NaOH solution was added to the filtrate sample to bring the total volume to 6 ml (i.e. the filtrate was diluted to 50% concentration.) To 1 ml of the resulting solution, 0.1N NaOH solution was further added to bring the total volume to 25 ml […]. In this connection, degree of dilution was occasionally changed, depending on degree of UV absorbance. The UV absorbance of the given amount of the solution was measured and the resulting absorbance was defined to as A2. Where the number of dilution is N, water-solubility (s) is obtained from the following equation: [formula]

[6] = system: Gram-negative microorganisms; settings: in words, prior art discussion; cited from earlier work

| Compound | minimum growth inhibitory concentration (MIC) (E. coli, NIHJ) [µg/mL] | minimum growth inhibitory concentration (MIC) (S. epidermidis, 56500) [µg/mL] | minimum growth inhibitory concentration (MIC) (Pr. vulgaris, 3167) [µg/mL] | minimum growth inhibitory concentration (MIC) (Ser. marcescens, 13001) [µg/mL] | minimum growth inhibitory concentration (MIC) (S. aureus, 209P) [µg/mL] | minimum growth inhibitory concentration (MIC) (Ps. aeruginosa, 2063) [µg/mL] | minimum growth inhibitory concentration (MIC) [1] [µg/mL] | minimum growth inhibitory concentration (MIC) (Ps. maltophilia, IID1275) [µg/mL] | minimum growth inhibitory concentration (MIC) (Ps. aeruginosa, 2128) [µg/mL] | minimum growth inhibitory concentration (MIC) (Pr. mirabilis, IF03849) [µg/mL] | minimum growth inhibitory concentration (MIC) (Ps. cepacia, IID1340) [µg/mL] | minimum growth inhibitory concentration (MIC) (Sh. flexneri, 2a5503) [µg/mL] | minimum growth inhibitory concentration (MIC) (Str. pyogenes, G-36) [µg/mL] | anti-microbial activity against Gram-negative microorganisms [2] | anti-microbial activity against Gram-positive microorganisms [3] | further results |
| --- | --- | --- | --- | --- | --- | --- | --- | --- | --- | --- | --- | --- | --- | --- | --- | --- |
| CC(N)C1CCN(c2c(F)cc3c(=O)c(C(=O)O)cn(C4CC4)c3c2F)C1 (single isomer, unassigned) [Example 2, 7-[3-(1-Aminoethyl)-1-pyrrolidinyl]-1-cyclopropyl-6,8-difluoro-1,4-dihydro-4-oxoquinoline-3-carboxylic acid] | ≤ 0.05 | ≤ 0.05 | ≤ 0.05 | ≤ 0.05 | ≤ 0.05 | 0.20 | ≤ 0.05 | 0.10 | ≤ 0.05 | ≤ 0.05 | 0.39 | ≤ 0.05 | ≤ 0.05 | extremely strong anti-microbial activity | extremely strong anti-microbial activity |  |
| CCn1cc(C(=O)O)c(=O)c2cc(F)c(N3CCC(C(C)N)C3)c(F)c21 (single isomer, unassigned) [Example 4, 7-[3-(1-Aminoethyl)-1-pyrrolidinyl]-1-ethyl-6,8-difluoro-1,4-dihydro-4-oxoquinoline-3-carboxylic acid] | ≤ 0.05 | ≤ 0.05 | 0.05 | 0.10 | ≤ 0.05 | 0.20 | ≤ 0.05 | 0.39 | 0.10 | 0.20 | 0.78 | ≤ 0.05 | ≤ 0.05 | extremely strong anti-microbial activity | extremely strong anti-microbial activity |  |
| CCNCC1CCN(c2c(F)cc3c(=O)c(C(=O)O)cn(CC)c3c2F)C1 (stereo not drawn) [Compound C, 1-Ethyl-7-[3-(ethylamino)methyl]-1-pyrolidinyl-6,8-difluoro-1,4-dihydro-4-oxo-3-quinolinecarboxylic acid, reference compound] |  |  |  |  |  |  |  |  |  |  |  |  |  |  |  | MIC (E. coli, NIHJ; Escherichia coli, read-out: minimum growth inhibitory concentration (MIC)): ≤ 0.05 µg/mL; MIC (S. epidermidis, 56500; Staphylococcus epidermidis, 56500, S. epidermidis, read-out: minimum growth inhibitory concentration (MIC)): 0.39 µg/mL (≈ 1.03 µM); MIC (Pr. vulgaris, 3167; Proteus vulgaris, 3167, Pr. vulgaris, read-out: minimum growth inhibitory concentration (MIC)): 0.2 µg/mL (≈ 0.527 µM); MIC (Ser. marcescens, 13001; Serratia marcescens, 13001, Ser. marcescens, read-out: minimum growth inhibitory concentration (MIC)): 0.2 µg/mL (≈ 0.527 µM); MIC (S. aureus, 209P; Staphylococcus aureus, read-out: minimum growth inhibitory concentration (MIC)): 0.1 µg/mL (≈ 0.264 µM); MIC (Ps. aeruginosa, 2063; Pseudomonas aeruginosa, 2063, Ps. aeruginosa, read-out: minimum growth inhibitory concentration (MIC)): 0.78 µg/mL (≈ 2.06 µM); MIC ([1]; Enterococcus faecalis, ATCC19433, Str. faecalis, read-out: minimum growth inhibitory concentration (MIC)): 0.39 µg/mL (≈ 1.03 µM); MIC (Ps. maltophilia, IID1275; Stenotrophomonas maltophilia, IID1275, Ps. maltophilia, read-out: minimum growth inhibitory concentration (MIC)): 0.78 µg/mL (≈ 2.06 µM); MIC (Ps. aeruginosa, 2128; Pseudomonas aeruginosa, 2128, Ps. aeruginosa, read-out: minimum growth inhibitory concentration (MIC)): 0.39 µg/mL (≈ 1.03 µM); MIC (Pr. mirabilis, IF03849; Proteus mirabilis, IF03849, Pr. mirabilis, read-out: minimum growth inhibitory concentration (MIC)): 0.39 µg/mL (≈ 1.03 µM); MIC (Ps. cepacia, IID1340; Burkholderia cepacia, IID1340, Ps. cepacia, read-out: minimum growth inhibitory concentration (MIC)): 1.56 µg/mL (≈ 4.11 µM); MIC (Sh. flexneri, 2a5503; Shigella flexneri, read-out: minimum growth inhibitory concentration (MIC)): ≤ 0.05 µg/mL; MIC (Str. pyogenes, G-36; Streptococcus pyogenes, G36, Str. pyogenes, read-out: minimum growth inhibitory concentration (MIC)): 0.78 µg/mL (≈ 2.06 µM); antimicrobial activity against Gram-positive microorganisms (prior art compounds) [4]: strong antimicrobial activity; mortality (acute toxicity to mouse): 50%; water-solubility (prior art compounds) [5]: good water-solubility; solubility at 0.5 h (physchem): 400 µg/mL (≈ 1050 µM); antimicrobial activity against Gram-negative microorganisms (prior art compounds) [6]: a little weak |
